How the values were obtained:
[1] = tested on: OVCAR-3 cells; conditions: OVCAR-3, Ovarian
From the text: (§1) The methods that were used by the DTP were described on the DTP website: (https://dtp.nci.nih.gov/discovery_development/nci-60/methodology.htm).

[2] = tested on: SK-MEL-2 cells; conditions: SK-MEL-2, Melanoma
From the text: as §1

[3] = tested on: UACC-62 cells; conditions: UACC-62, Melanoma
From the text: as §1

[4] = tested on: SF-539 cells; conditions: SF-539, Central Nervous System
From the text: as §1

[5] = tested on: MDA-MB-468 cells; conditions: MDA-MB-468, Breast
From the text: as §1

[6] = tested on: T-47D cells; conditions: Breast
From the text: as §1

[7] = tested on: DU-145 cells; conditions: DU-145, Prostate
From the text: as §1

[8] = tested on: UO-31 cells; conditions: UO-31, Renal
From the text: as §1

[9] = tested on: SF-295 cells; conditions: SF-295, Central Nervous System
From the text: as §1

[10] = tested on: HCT-116 cells; conditions: HCT-116, Colon
From the text: as §1

[11] = tested on: EKVX cells; conditions: Non-Small Cell Lung
From the text: as §1

[12] = tested on: A549/ATCC cells; conditions: Non-Small Cell Lung
From the text: as §1

[13] = tested on: MDA-MB-231/ATCC cells; conditions: Breast
From the text: as §1

[14] = tested on: RPMI-8226 cells; conditions: RPMI-8226, Leukemia
From the text: as §1

[15] = tested on: COLO 205 cells; conditions: COLO 205, Colon
From the text: as §1

[16] = tested on: SR cells; conditions: Leukemia
From the text: as §1

[17] = tested on: NCI-H23 cells; conditions: NCI-H23, Non-Small Cell Lung
From the text: as §1

[18] = tested on: 786-0 cells; conditions: 786-0, Renal
From the text: as §1

[19] = tested on: SK-MEL-5 cells; conditions: SK-MEL-5, Melanoma
From the text: as §1

[20] = tested on: SW-620 cells; conditions: SW-620, Colon
From the text: as §1

[21] = tested on: MALME-3M cells; conditions: Melanoma
From the text: as §1

[22] = tested on: OVCAR-4 cells; conditions: OVCAR-4, Ovarian
From the text: as §1

[23] = tested on: M14 cells; conditions: M14, Melanoma
From the text: as §1

[24] = tested on: OVCAR-8 cells; conditions: OVCAR-8, Ovarian
From the text: as §1

[25] = tested on: MDA-MB-435 cells; conditions: MDA-MB-435, Melanoma
From the text: as §1

[26] = tested on: HT29 cells; conditions: HT29, Colon
From the text: as §1

[27] = tested on: CAKL-1 cells; conditions: CAKL-1, Renal
From the text: as §1

[28] = tested on: HS 578T cells; conditions: Breast
From the text: as §1

[29] = tested on: CCRF-CEM cells; conditions: Leukemia
From the text: as §1

[30] = tested on: HCC-2998 cells; conditions: HCC-2998, Colon
From the text: as §1

[31] = tested on: SF-268 cells; conditions: SF-268, Central Nervous System
From the text: as §1

[32] = tested on: UACC-257 cells; conditions: UACC-257, Melanoma
From the text: as §1

[33] = tested on: NCI-H226 cells; conditions: NCI-H226, Non-Small Cell Lung
From the text: as §1

[34] = tested on: RXF 393 cells; conditions: RXF 393, Renal
From the text: as §1

[35] = tested on: NCI-H460 cells; conditions: NCI-H460, Non-Small Cell Lung
From the text: as §1

[36] = tested on: OVCAR-5 cells; conditions: OVCAR-5, Ovarian
From the text: as §1

[37] = tested on: HOP-62 cells; conditions: HOP-62, Non-Small Cell Lung
From the text: as §1

[38] = tested on: SNB-19 cells; conditions: SNB-19, Central Nervous System
From the text: as §1

[39] = tested on: NCI-H522 cells; conditions: NCI-H522, Non-Small Cell Lung
From the text: as §1

[40] = tested on: MOLT-4 cells; conditions: MOLT-4, Leukemia
From the text: as §1

[41] = tested on: SK-MEL-28 cells; conditions: SK-MEL-28, Melanoma
From the text: as §1

[42] = tested on: SN12C cells; conditions: Renal
From the text: as §1

[43] = tested on: SNB-75 cells; conditions: SNB-75, Central Nervous System
From the text: as §1

[44] = tested on: genomic DNA; assay: Platinum-DNA adducts by ICP-MS in HEK293 cells; format: cell-based, human
Method: Method to quantify platinum-DNA adducts by ICP-MS has been previously described (5,6). In brief, HEK293 cells were seeded in 6-well poly-D-lysine plate (cell density=0.5×10^6 cells/well). […] After 2 hours, the cells were washed twice with cold HBBS. The platinum content associated with genomic DNA was determined as described elsewhere. Genomic DNA was isolated from the cell pellets using Genomic DNA purification kit (Promega) and the DNA-bound platinum was determined by ICP-MS, which was normalized to total DNA content (determined by absorption spectrometry at 260 nm).

## [Pt(DMSO)methotrexate(Cl)] [SM-69]
[1]
  Log10GI50: −4.15 M
[2]
  Log10GI50: −4.00 M
[3]
  Log10GI50: −4.90 M
[4]
  Log10GI50: −5.19 M
[5]
  Log10GI50: −5.08 M
[6]
  Log10GI50: −4.08 M
[7]
  Log10GI50: −5.18 M
[8]
  Log10GI50: −4.92 M
[9]
  Log10GI50: −5.46 M
[10]
  Log10GI50: −5.50 M
[11]
  Log10GI50: −4.16 M
[12]
  Log10GI50: −5.30 M
[13]
  Log10GI50: −4.00 M
[14]
  Log10GI50: −4.94 M
[15]
  Log10GI50: −4.34 M
[16]
  Log10GI50: −5.52 M
[17]
  Log10GI50: −4.45 M
[18]
  Log10GI50: −5.46 M
[19]
  Log10GI50: −4.12 M
[20]
  Log10GI50: −5.48 M
[21]
  Log10GI50: −4.71 M
[22]
  Log10GI50: −4.00 M
[23]
  Log10GI50: −5.41 M
[24]
  Log10GI50: −5.36 M
[25]
  Log10GI50: −5.36 M
[26]
  Log10GI50: −5.25 M
[27]
  Log10GI50: −5.23 M
[28]
  Log10GI50: −4.00 M
[29]
  Log10GI50: −5.39 M
[30]
  Log10GI50: −4.95 M
[31]
  Log10GI50: −5.04 M
[32]
  Log10GI50: −4.01 M
[33]
  Log10GI50: −4.61 M
[34]
  Log10GI50: −4.63 M
[35]
  Log10GI50: −5.34 M
[36]
  Log10GI50: −4.61 M
[37]
  Log10GI50: −4.26 M
[38]
  Log10GI50: −4.00 M
[39]
  Log10GI50: −4.74 M
[40]
  Log10GI50: −5.30 M
[41]
  Log10GI50: −4.00 M
[42]
  Log10GI50: −5.29 M
[43]
  Log10GI50: −4.39 M
[44]
  platinum content associated with genomic DNA, dose dependence: higher with higher doses
[44]; 10 μM, 2 hours
  platinum content associated with genomic DNA (platinum-DNA adducts): form platinum-DNA adducts similarly to cisplatin

— patent US10392412B2, “Platinum anticancer agents” (THE REGENTS OF THE UNIVERSITY OF CALIFORNIA, priority 2015, dated 2019)
